From US11072625B2 (GLYCOMIMETICS, INC., priority 2016, dated 2021)

Each molecule was assayed against T1, recombinant human E-selectin/CD63E Fc Chimera (Homo sapiens, UniProt P16581) (assay: E-selectin activity, analysis by SPR (Biacore X100)). Details: Biacore X100, CM5 chip, E-selectin Fc chimera captured on anti-human IgG (Fc) antibody.
T1 construct: purchased R & D systems
T1 sequence (P16581 with tags, fused parts or gaps limits assumed): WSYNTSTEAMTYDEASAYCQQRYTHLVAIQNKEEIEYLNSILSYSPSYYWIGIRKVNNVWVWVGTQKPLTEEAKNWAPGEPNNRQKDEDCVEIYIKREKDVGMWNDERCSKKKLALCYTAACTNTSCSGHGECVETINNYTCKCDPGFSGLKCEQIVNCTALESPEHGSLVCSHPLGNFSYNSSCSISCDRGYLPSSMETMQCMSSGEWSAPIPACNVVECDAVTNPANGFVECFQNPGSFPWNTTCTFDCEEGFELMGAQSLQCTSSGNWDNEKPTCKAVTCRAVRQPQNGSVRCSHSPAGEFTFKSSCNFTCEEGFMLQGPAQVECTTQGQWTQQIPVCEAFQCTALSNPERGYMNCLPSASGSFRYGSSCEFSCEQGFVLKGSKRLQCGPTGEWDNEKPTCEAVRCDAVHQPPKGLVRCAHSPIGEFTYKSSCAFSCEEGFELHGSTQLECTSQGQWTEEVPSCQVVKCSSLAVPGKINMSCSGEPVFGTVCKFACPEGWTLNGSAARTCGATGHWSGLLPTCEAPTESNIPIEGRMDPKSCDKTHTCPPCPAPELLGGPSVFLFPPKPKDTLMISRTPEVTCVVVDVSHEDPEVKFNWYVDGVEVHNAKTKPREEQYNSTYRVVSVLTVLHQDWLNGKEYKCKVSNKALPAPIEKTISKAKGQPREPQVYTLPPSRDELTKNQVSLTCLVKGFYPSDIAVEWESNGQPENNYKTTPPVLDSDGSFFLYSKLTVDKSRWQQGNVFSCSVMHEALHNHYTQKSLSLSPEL
Type: binding
Protocol: Surface Plasmon Resonance (SPR) measurements were performed on a Biacore X100 instrument (GE Healthcare). A CM5 sensor chip (GE Healthcare) was used for the interaction between E-selectin and GMI compound. Anti-human IgG (Fc) antibody (GE Healthcare) was immobilized onto the chip by amine coupling according to the manufacturer's instructions. In brief, after a 7-min injection (flow rate of 5 μl/min) of 1:1 mixture of N-ethyl-N′-(3-dimethylaminopropyl) carbodiimide hydrochloride and N-hydroxysuccinimide, anti-human IgG (Fc) antibody (25 μg/ml in 10 mM sodium acetate buffer, pH 5.0) was injected using a 6-min injection at 5 μl min. Remaining activated groups were blocked by injecting 1 M ethanolamine/HCl, pH 8.5. The recombinant human E-selectin/CD63E Fc Chimera (50 μg/ml) (R & D systems) was injected into the experimental cell until 6000-7000 RU was captured onto the antibody surface. No recombinant human E-selectin/CD63E was injected into the control cell. Increasing concentrations of GMI compound samples were injected at 30 μl/min into both flow cells and all sensorgrams were recorded against the control. Regeneration of the anti-human IgG (Fc) surface was achieved by injecting 3M magnesium chloride, followed by 50 mM sodium hydroxide. Data were analyzed using Biacore X100 evaluation/BIA evaluation 4.1.1 software (GE Healthcare) and Graphad prism 6 software.
`CCC1CC(C(=O)OC)C[C@@H](O[C@@H]2O[C@@H](CO)[C@H](O)C(O[C@@H](CC3CCCCC3)C(=O)N3CCC3)C2NC(C)=O)[C@@H]1O[C@@H]1OC(C)[C@@H](O)[C@H](O)C1O` (some centres unmarked) [Compound 4] showed a Kd of 2600 nM. Molecule `CCC1CC(C(=O)NCCNC(=O)CCOCCOCCOCCOCCOCCOCCOCCOCCOCCOCCOCCOCCOCCOCCOCCOCCOCCOCCOCCOCCOCCC(=O)NCCNC(=O)C2CC(CC)C(OC3OC(C)C(O)C(O)C3O)C(OC3OC(CO)C(O)C(OC(CC4CCCCC4)C(=O)O)C3NC(C)=O)C2)CC(OC2OC(CO)C(O)C(OC(CC3CCCCC3)C(=O)O)C2NC(C)=O)C1OC1OC(C)C(O)C(O)C1O` (centres unmarked) [Compound 13] has a Kd of 4.7 nM. `CCC1CC(C(=O)NCCNC(=O)CCOCCOCCOCCOCCOCCOCCOCCOCCOCCOCCOCCOCCOCCC(=O)NCCNC(=O)C2CC(CC)C(OC3OC(C)C(O)C(O)C3O)C(OC3OC(CO)C(O)C(OC(CC4CCCCC4)C(=O)O)C3NC(C)=O)C2)CC(OC2OC(CO)C(O)C(OC(CC3CCCCC3)C(=O)O)C2NC(C)=O)C1OC1OC(C)C(O)C(O)C1O` (centres unmarked) [Compound 14] was tested, and the Kd was 6.6 nM. With `CCC1CC(C(=O)NCCNC(=O)CCOCCOCCOCCOCCOCCOCCOCCOCCOCCOCCC(=O)NCCNC(=O)C2CC(CC)C(OC3OC(C)C(O)C(O)C3O)C(OC3OC(CO)C(O)C(OC(CC4CCCCC4)C(=O)O)C3NC(C)=O)C2)CC(OC2OC(CO)C(O)C(OC(CC3CCCCC3)C(=O)O)C2NC(C)=O)C1OC1OC(C)C(O)C(O)C1O` (centres unmarked) [Compound 15] the Kd was 6 nM. Work on `CCC1CC(C(=O)NCCNC(=O)CCOCCOCCOCCOCCOCCOCCC(=O)NCCNC(=O)C2CC(CC)C(OC3OC(C)C(O)C(O)C3O)C(OC3OC(CO)C(O)C(OC(CC4CCCCC4)C(=O)O)C3NC(C)=O)C2)CC(OC2OC(CO)C(O)C(OC(CC3CCCCC3)C(=O)O)C2NC(C)=O)C1OC1OC(C)C(O)C(O)C1O` (centres unmarked) [Compound 16] yielded a Kd of 6 nM. `CCC1CC(C(=O)NCCNC(=O)CCOCCOCCOCCOCCC(=O)NCCNC(=O)C2CC(CC)C(OC3OC(C)C(O)C(O)C3O)C(OC3OC(CO)C(O)C(OC(CC4CCCCC4)C(=O)O)C3NC(C)=O)C2)CC(OC2OC(CO)C(O)C(OC(CC3CCCCC3)C(=O)O)C2NC(C)=O)C1OC1OC(C)C(O)C(O)C1O` (centres unmarked) [Compound 17] gave a Kd of 5.1 nM. `CCC1CC(C(=O)NCCNC(=O)CCOCCOCCC(=O)NCCNC(=O)C2CC(CC)C(OC3OC(C)C(O)C(O)C3O)C(OC3OC(CO)C(O)C(OC(CC4CCCCC4)C(=O)O)C3NC(C)=O)C2)CC(OC2OC(CO)C(O)C(OC(CC3CCCCC3)C(=O)O)C2NC(C)=O)C1OC1OC(C)C(O)C(O)C1O` (centres unmarked) [Compound 18] showed a Kd of 3.5 nM. Molecule `CC[C@H]1C[C@@H](C(=O)NCCNC(=O)CCC(=O)NCCNC(=O)C2C[C@H](CC)[C@@H](O[C@@H]3O[C@@H](C)[C@@H](O)[C@@H](O)[C@@H]3O)[C@H](O[C@@H]3O[C@H](CO)[C@H](O)[C@H](O[C@@H](CC4CCCCC4)C(=O)O)[C@H]3NC(C)=O)C2)C[C@@H](OC2O[C@H](CO)[C@H](O)[C@H](O[C@@H](CC3CCCCC3)C(=O)O)[C@H]2NC(C)=O)[C@@H]1O[C@@H]1O[C@@H](C)[C@@H](O)[C@@H](O)[C@@H]1O` (some centres unmarked) [Compound 19] has a Kd of 10.2 nM. `CCC1CC(C(=O)NCCNC(=O)CCOCCOCCOCCOCCOCCOCCOCCOCCOCCOCCC(=O)NCCNC(=O)C2CC(CC)C(OC3OC(C)C(O)C(O)C3O)C(OC3OC(CO)C(O)C(OC(CC4CCCCC4)C(=O)N4CCC4)C3NC(C)=O)C2)CC(OC2OC(CO)C(O)C(OC(CC3CCCCC3)C(=O)N3CCC3)C2NC(C)=O)C1OC1OC(C)C(O)C(O)C1O` (centres unmarked) [Compound 20] gave a Kd of 0.8 nM. Work on `CCC1CC(C(=O)NCCNC(=O)CCOCCOCCOCCOCCC(=O)NCCNC(=O)C2CC(CC)C(OC3OC(C)C(O)C(O)C3O)C(OC3OC(CO)C(O)C(OC(CC4CCCCC4)C(=O)N4CCC4)C3NC(C)=O)C2)CC(OC2OC(CO)C(O)C(OC(CC3CCCCC3)C(=O)N3CCC3)C2NC(C)=O)C1OC1OC(C)C(O)C(O)C1O` (centres unmarked) [Compound 23] yielded a Kd of 2.8 nM. `CCC1CC(C(=O)NCCNC(=O)CCOCCOCCC(=O)NCCNC(=O)C2CC(CC)C(OC3OC(C)C(O)C(O)C3O)C(OC3OC(CO)C(O)C(OC(CC4CCCCC4)C(=O)N4CCC4)C3NC(C)=O)C2)CC(OC2OC(CO)C(O)C(OC(CC3CCCCC3)C(=O)N3CCC3)C2NC(C)=O)C1OC1OC(C)C(O)C(O)C1O` (centres unmarked) [Compound 25] showed a Kd of 3 nM. `CC[C@H]1C[C@@H](C(=O)NCCNC(=O)c2cn(CCOCCOCCOCCn3cc(C(=O)NCCNC(=O)[C@@H]4C[C@H](CC)[C@@H](O[C@@H]5O[C@@H](C)[C@@H](O)[C@@H](O)[C@@H]5O)[C@H](O[C@@H]5O[C@H](CO)[C@H](O)[C@H](O[C@@H](CC6CCCCC6)C(=O)O)[C@H]5NC(C)=O)C4)nn3)nn2)C[C@@H](OC2O[C@H](CO)[C@H](O)[C@H](O[C@@H](CC3CCCCC3)C(=O)O)[C@H]2NC(C)=O)[C@@H]1OC1O[C@@H](C)[C@@H](O)[C@@H](O)[C@@H]1O` (some centres unmarked) [Compound 27] was tested, and the Kd was 8.6 nM. Molecule `CCC1CC(C(=O)NCCNC(=O)c2cn(CCOCCOCCn3cc(C(=O)NCCNC(=O)C4CC(CC)C(OC5OC(C)C(O)C(O)C5O)C(OC5OC(CO)C(O)C(OC(CC6CCCCC6)C(=O)O)C5NC(C)=O)C4)nn3)nn2)CC(OC2OC(CO)C(O)C(OC(CC3CCCCC3)C(=O)O)C2NC(C)=O)C1OC1OC(C)C(O)C(O)C1O` (centres unmarked) [Compound 28] has a Kd of 3.2 nM. In the case of `CC[C@H]1C[C@@H](C(=O)NCCNC(=O)c2cn(CC(=O)NCCNC(=O)[C@@H]3C[C@H](CC)[C@@H](O[C@@H]4O[C@@H](C)[C@@H](O)[C@@H](O)[C@@H]4O)[C@H](O[C@@H]4O[C@H](CO)[C@H](O)[C@H](O[C@@H](CC5CCCCC5)C(=O)O)[C@H]4NC(C)=O)C3)nn2)C[C@@H](OC2O[C@H](CO)[C@H](O)[C@H](O[C@@H](CC3CCCCC3)C(=O)O)[C@H]2NC(C)=O)[C@@H]1OC1O[C@@H](C)[C@@H](O)[C@@H](O)[C@@H]1O` (some centres unmarked) [Compound 31], the Kd is reported as 3.3 nM. Molecule `CC[C@H]1C[C@@H](C(=O)NCCNC(=O)NCCNC(=O)[C@@H]2C[C@H](CC)[C@@H](O[C@@H]3O[C@@H](C)[C@@H](O)[C@@H](O)[C@@H]3O)[C@H](O[C@@H]3O[C@H](CO)[C@H](O)[C@H](O[C@@H](CC4CCCCC4)C(=O)O)[C@H]3NC(C)=O)C2)C[C@@H](OC2O[C@H](CO)[C@H](O)[C@H](O[C@@H](CC3CCCCC3)C(=O)O)[C@H]2NC(C)=O)[C@@H]1OC1O[C@@H](C)[C@@H](O)[C@@H](O)[C@@H]1O` (some centres unmarked) [Compound 32] has a Kd of 8.8 nM. Work on `CCC1CC(C(=O)NCCNC(=O)c2cn(CCOCCC(=O)NCCCCC(NC(=O)CCOCCn3cc(C(=O)NCCNC(=O)C4CC(CC)C(OC5OC(C)C(O)C(O)C5O)C(OC5OC(CO)C(O)C(OC(CC6CCCCC6)C(=O)O)C5NC(C)=O)C4)nn3)C(=O)OCc3ccccc3)nn2)CC(OC2OC(CO)C(O)C(OC(CC3CCCCC3)C(=O)O)C2NC(C)=O)C1OC1OC(C)C(O)C(O)C1O` (centres unmarked) [Compound 37] yielded a Kd of 3.9 nM. Work on `CC[C@H]1C[C@@H](C(=O)NCCNC(=O)NCCNC(=O)[C@@H]2C[C@H](CC)[C@@H](O[C@@H]3O[C@@H](C)[C@@H](O)[C@@H](O)[C@@H]3O)[C@H](O[C@@H]3O[C@H](CO)[C@H](O)[C@H](O[C@@H](CC4CCCCC4)C(=O)N4CCC4)[C@H]3NC(C)=O)C2)C[C@@H](OC2O[C@H](CO)[C@H](O)[C@H](O[C@@H](CC3CCCCC3)C(=O)N3CCC3)[C@H]2NC(C)=O)[C@@H]1OC1O[C@@H](C)[C@@H](O)[C@@H](O)[C@@H]1O` (some centres unmarked) [Compound 45] yielded a Kd of 2.1 nM.
